The text below walks through data of patent publication EP1247803A2, “Indolinone compounds suitable for modulation of protein kinases” (Sugen, Inc., priority 1996, dated 1998).

For the assay, the target named is T1, EGFR (Homo sapiens, UniProt P00533).
T1 construct: Add 7 ug A431 cell lysate per well (EGFR source); endogenous in cells; host or cells: A431
T1 sequence (P00533 25-1210): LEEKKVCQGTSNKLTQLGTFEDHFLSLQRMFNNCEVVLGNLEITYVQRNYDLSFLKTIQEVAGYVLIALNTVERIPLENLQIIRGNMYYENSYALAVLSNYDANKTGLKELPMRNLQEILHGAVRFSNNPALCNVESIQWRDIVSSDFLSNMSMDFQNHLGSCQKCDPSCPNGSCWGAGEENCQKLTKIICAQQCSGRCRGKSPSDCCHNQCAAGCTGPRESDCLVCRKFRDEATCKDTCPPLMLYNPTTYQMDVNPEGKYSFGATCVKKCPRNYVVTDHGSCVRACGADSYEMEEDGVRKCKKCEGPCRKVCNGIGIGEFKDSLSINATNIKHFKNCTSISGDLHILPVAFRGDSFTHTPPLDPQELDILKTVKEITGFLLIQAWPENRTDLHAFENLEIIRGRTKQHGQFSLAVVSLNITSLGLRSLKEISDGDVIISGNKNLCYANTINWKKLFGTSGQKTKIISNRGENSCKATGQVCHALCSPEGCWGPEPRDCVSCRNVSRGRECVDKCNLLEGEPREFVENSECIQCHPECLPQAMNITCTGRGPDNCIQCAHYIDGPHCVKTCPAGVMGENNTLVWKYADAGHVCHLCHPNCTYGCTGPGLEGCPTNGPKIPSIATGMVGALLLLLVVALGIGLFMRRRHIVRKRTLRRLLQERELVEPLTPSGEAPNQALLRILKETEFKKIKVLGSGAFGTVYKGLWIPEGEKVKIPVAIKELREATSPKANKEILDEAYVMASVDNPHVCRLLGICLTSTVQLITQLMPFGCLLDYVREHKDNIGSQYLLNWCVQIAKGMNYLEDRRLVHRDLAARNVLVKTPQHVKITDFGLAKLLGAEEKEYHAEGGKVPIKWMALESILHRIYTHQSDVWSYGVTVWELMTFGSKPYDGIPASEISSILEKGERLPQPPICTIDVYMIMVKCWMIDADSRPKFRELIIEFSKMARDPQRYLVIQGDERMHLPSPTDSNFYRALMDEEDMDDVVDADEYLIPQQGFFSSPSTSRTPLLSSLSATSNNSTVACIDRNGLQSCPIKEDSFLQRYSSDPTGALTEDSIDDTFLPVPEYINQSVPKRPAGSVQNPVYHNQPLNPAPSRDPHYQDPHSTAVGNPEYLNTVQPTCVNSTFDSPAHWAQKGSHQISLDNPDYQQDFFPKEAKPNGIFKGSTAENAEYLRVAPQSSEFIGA
Nature of the assay: EGFR ELISA assay (in vitro kinase activity, EGFR captured from A431 cell lysate). Also noted: concentration or dose not given beside the values. Format: biochemical. In a few lines:
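Receptor autophosphorylation was read by ELISA: anti-phosphotyrosine serum and an HRP-linked secondary with ABTS substrate, absorbance at 410 nm (reference 630 nm). The reaction ran 5 min with 3 µM ATP and 5 mM MnCl2 and was quenched by 20 mM EDTA. Compounds were first incubated 30 min with antibody-captured EGFR from A431 cell lysate.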
Turning to `CCN(CC)c1ccc(C=C2C(=O)Nc3ccc(S(=O)(=O)NC)cc32)cc1` [10727/D02], the “Biochem EGFR %Inhibition” value turned out to be 22.6%.
`COc1ccc(C=C2C(=O)Nc3ccc(S(=O)(=O)N4CCOCC4)cc32)cc1` [10726/F11]: the “Biochem EGFR %Inhibition” value is -16.8%.
Turning to `O=C1Nc2ccc(CCCl)cc2C1=Cc1ccc(Br)cc1` [10717/G08], the “Biochem EGFR %Inhibition” value is on record as 36.4%.
Turning to `Cc1c(Br)ccc2c1C(=C1C(=O)Nc3ccccc31)C(=O)N2` [10726/C09], the “Biochem EGFR %Inhibition” value is listed as -14.3%.
`Cc1c(Br)ccc2c1C(=Cc1cccc(C#N)c1)C(=O)N2` [10727/C08]: the “Biochem EGFR %Inhibition” value is listed as 3.6%.
Turning to `COc1ccc(C=C2C(=O)Nc3ccc(Br)c(C)c32)cc1` [10726/C11], the “Biochem EGFR %Inhibition” value is given as 4.8%.
Regarding `O=C1Nc2ccc(S(=O)(=O)Nc3ccc(C(F)(F)F)cc3)cc2C1=Cc1cc(O)c2c(c1O)CCCC2` [10726/E07], the “Biochem EGFR %Inhibition” value was determined as 20.5%.
As to `O=C1Nc2ccc(CCCl)cc2C1=Cc1ccc(F)cc1` [10717/G05], the “Biochem EGFR %Inhibition” value was -0.1%.
